Row | melting point | Compound
1 | 189 to 192 °C | O=C(Nc1ccc2[nH]c(C(F)(F)F)nc2c1)NC12CC3CC(CC(C3)C1)C2
2 | 98 to 99 °C | Fc1ccc(C(c2ccccc2Cl)N2CCN(CCCOC(c3ccccc3)c3ccccc3)CC2)cc1 (configuration not stated)
3 | 88 to 89 °C | N#Cc1ccc(N2CCC(N3CCCC3)CC2)cc1
4 | 144 °C | CC(C)(C)c1cc(C(=O)c2cccnc2)cc(C(C)(C)C)c1O
5 | 78 to 80 °C | CCC1(COCc2ccccc2Cl)CCC(C)(C(N)=S)O1 (configuration not stated)
6 | 332 to 333 °C | O=c1c(-c2ccccn2)c(O)c2cccnc2n1-c1ccccc1
7 | 175 to 176 °C | N#Cc1cc(C(=O)NNC(=O)c2occc2-c2ccccc2Cc2ccccc2)ccc1O
8 | 64.1 to 64.9 °C | O=C(CC1CN2C(=O)CC2O1)OC(c1ccccc1)c1ccccc1 (configuration not stated)
9 | 134 to 135 °C | CC(Oc1ncn(-c2cccc(Br)c2)n1)C(=O)NC1CC1 (configuration not stated)
10 | 160 to 162 °C | CC12CCCCC1(O)CCC1C2CCC2(C)C1CC13OCCOC12OCCO3 (configuration not stated)
11 | 160 to 161 °C | COc1ccc(NC(=S)NCCCn2ccnc2)cc1OC
12 | 153 to 156 °C | O=C1Nc2cccnc2N(C(=O)N2CCCC(CCCCN3CCCC3)C2)c2ccccc21 (configuration not stated)
13 | 118 to 119 °C | O=S(=O)(CCN1CC(c2ccccc2)C(c2ccc(Cl)cc2)=N1)c1cccc(C(F)(F)F)c1 (configuration not stated)
14 | 85 °C | CCCC(=NOCC)C1=C(O)CC(C2(C)CC(C(C)C)=NO2)CC1=O (configuration not stated)
15 | 183 to 184 °C | Cc1c(C(=O)O)cnn1-c1ccc(F)cc1F
16 | 200 to 203 °C | CCOc1cc2ncc(C#N)c(Nc3ccc4c(c3)OCO4)c2cc1OCC
17 | 234 to 236 °C | COc1c(C)cc(-c2nn(C(C)c3oc4ccccc4c(=O)c3-c3cccc(F)c3)c3ncnc(N)c23)cc1C (configuration not stated)
18 | > 320 °C | NS(=O)(=O)c1ccc(C(=O)Nc2cn3cc(Cl)ccc3n2)cc1
19 | 66 °C | C=CCS(=O)CCNC(N)=O (configuration not stated)
20 | 229 to 230 °C | CNC(=O)c1cccc(NC(=O)Cc2c(O)ccc3ccccc23)c1
21 | 174 to 175 °C | CS(=O)(=O)Nc1ccc(C(N)=NO)cc1Oc1ccc(F)cc1F
22 | 141 to 142 °C | O=C(OCC1c2ccccc2-c2ccccc21)N1Cc2cccn2Cc2ccccc21
23 | 275 to 276 °C | O=c1cc(-c2cc(F)c(O)c(F)c2)oc2ccccc12
24 | 199 to 202 °C | CC(C)OC(=O)C1=C(c2cn(C)c3ccccc23)C(=O)NC1=O

Row | melting point | Compound
25 | 94 °C | CC(C)(C)OC(=O)Nc1cc(OC(C)(C)C)c(I)cc1[N+](=O)[O-]
26 | 99 to 102 °C | CNc1cc(Cc2c(-c3ccc(OCCN4CCCC4)cc3)sc3cc(O)ccc23)ccc1CN1CCCC1
27 | 50 to 52 °C | O=C(O)C(=O)c1ccc(OCCCOc2ccccc2)cc1
28 | 151 °C | OC1(c2ccc(Cl)c(C(F)(F)F)c2)CCN(CCCc2nnc3n2CCCCC3)CC1
29 | 114 to 116 °C | CCCc1c(OCCCSc2ccc(-c3nnn[nH]3)cc2)ccc(C(C)=O)c1O
30 | 128 to 129 °C | CCCCOc1cc(C(=O)O)n(Cc2ccc(C(F)(F)F)cc2)n1
31 | 105 to 106 °C | CCOc1cccc(CN2CCc3cc(O)c(OC)cc3C2)c1
32 | 223 to 224 °C | COc1ccnc(NC(=O)NS(=O)(=O)c2ccccc2-c2nn(C)c(=O)o2)n1
33 | 239 to 242 °C | COc1cccc2c(=O)[nH]c(C3CCN(C)CC3)cc12
34 | 253 °C | CCN(CC)c1ccc(-c2cc(-c3ccc(C(=O)O)cc3)ccc2CCCNC(C)C)cc1C(C)(C)C
35 | 95 to 97 °C | CCCCCCCCCCCCCCCC(=O)NC(=O)OCc1nc(C(C)C)c(Sc2cc(Cl)cc(Cl)c2)n1CC
36 | 171 to 172 °C | O=C(O)CCc1cnoc1-c1ccc(Cl)c(Cl)c1
37 | 64 to 65 °C | CC(=Cc1ccccc1)c1ccc2c(c1)C(C)(C)CCO2
38 | 280 to 285 °C | COC(=O)CC[C@H](NC(=O)c1ccc(C#Cn2cnc3nc(NC(=O)C(C)(C)C)cc-3c2O)cc1)C(=O)OC
39 | 118 °C | CC1(C)CC(OC(=O)CCC(=O)OC2CC(C)(C)NC(C)(C)C2)CC(C)(C)N1
40 | 170 to 172 °C | CC(=O)C1CCC2C3=C(C(=O)CC12C)C1(C)CCC(O)CC1CC3 (configuration not stated)
41 | 124 to 125 °C | CC(O)c1ncnc(N2CCN(S(=O)(=O)N(C)C)CC2)n1 (configuration not stated)
42 | 156 to 158 °C | COC(=O)c1c(Cl)cc(Cl)cc1NC(=O)CSc1ccc(NC(=O)Cc2ccccc2)cc1
43 | 68 to 70 °C | O=S(=O)(NCCC(F)=C(F)F)c1ccc(C(F)(F)F)cc1
44 | 95 to 97 °C | CCOC(=O)N(c1ccccc1N)c1cccc(C)c1C
45 | 153 to 154 °C | Nc1cc(C(=O)c2ccc(Oc3ccccc3)c(N)c2)ccc1Oc1ccccc1
46 | 155 to 156 °C | COc1ccc2c(c1)C(=O)N(CCN(C)CCN1C(=O)c3ccccc3C(C)(C)C1=O)C(=O)C2(C)C
47 | 76 to 77.5 °C | CC(C)(C(=O)Nc1cc(F)ccc1F)N1COC(C=O)=C(c2ccccc2)C1=O
48 | 227 to 229 °C | O=C(NN=Cc1ccc(Br)cc1)c1[nH]c2ccccc2c1Cc1ccccc1

Row | melting point | Compound
49 | 114 °C | Cc1ccccc1NS(=O)(=O)c1ccc(Br)cc1
50 | 85 to 86 °C | CC(=O)OC(C)c1ccc(C=C(C)c2ccc3c(c2)C(C)(C)CCC3(C)C)cc1 (configuration not stated)
51 | 112 °C | CCOC(=O)CCC1CCC2C(C=CC3=CCCc4c3n2c2ccncc42)C1 (configuration not stated)
52 | 144 to 147 °C | Cc1cc(C)cc(CCCn2c(=O)c3c(Cl)cc(Cl)cc3n(Cc3ccccc3)c2=O)c1
53 | 170 to 172 °C | CC1(COc2ccc(CP(=O)(O)O)cc2)CCCCC1
54 | 69 °C | CCC1CC(=O)N(Cc2ccc(NS(C)(=O)=O)cc2)N=C1c1ccc(OC)c(OC2CCCC2)c1 (configuration not stated)
55 | 169 to 172 °C | CCc1c(CC(=O)NCCCCCCNC(=O)Cc2ccc(OC)c(OC)c2CC)ccc(OC)c1OC
56 | 218 to 219 °C | N#Cc1onc(-c2ccccc2)c1-c1ccc(S(N)(=O)=O)cc1
57 | 80 °C | CC(C)(C)c1cccc(S(=O)(=O)n2c(C(C)(O)c3ccc(C(=O)O)s3)cc3cc(C(F)(F)F)ccc32)c1 (configuration not stated)
58 | 112 to 114 °C | Cc1ncc(CO)c(NCc2ccc(-c3ccccc3-c3nnnn3C(c3ccccc3)(c3ccccc3)c3ccccc3)cc2)n1
59 | 306 to 308 °C | Cn1c(=O)c2c(nc(C=Cc3cccc([N+](=O)[O-])c3)n2C)n(C)c1=O
60 | 150 to 151 °C | CC(=NO)c1ccc(NS(C)(=O)=O)c(Oc2ccc(F)cc2F)c1
61 | 61 to 62 °C | CCCCCOC(=O)Cc1nc(-c2ccccc2)oc1-c1ccsc1
62 | 135 to 137 °C | COC[C@@H](NS(=O)(=O)c1ccc2c(Cl)cnc(Cl)c2c1)C(=O)OC(C)(C)C
63 | 106 to 108 °C | C=C(Cl)CN1C(=O)c2ccccc2Oc2ncccc21
64 | 130 to 132 °C | CSc1nc2c(Cl)cc(Cl)c([N+](=O)[O-])c2s1
65 | 122 °C | CCCCN1C(=O)NC(Cc2cc(OC)c(OC)cc2OC)C1=O (configuration not stated)
66 | 94 to 100 °C | CCCC[C@H](NC(=O)[C@H](CC(C)C)NC(=O)c1ccc(F)c(F)c1)C(=O)CSCc1ccco1
67 | 169 °C | Cc1cc(C)cc(NC(=O)NC2CC2)c1
68 | 120 to 122 °C | CC(=O)NCC1CN(c2ccc(-c3cccc(CF)c3)c(F)c2)C(=O)O1 (configuration not stated)
69 | 81 to 83 °C | OCC#CCCCCCCC#Cc1ccc(O)c(O)c1
70 | 202 to 203 °C | CC(=O)OC1Cc2ccc(F)cc2/C1=C/C(N)=O (configuration not stated)
71 | 225 to 226 °C | Cn1cc(Nc2nc(N3CCOCC3)nc(-n3c(C(F)F)nc4ccccc43)n2)cn1
72 | 200 °C | O=C1CCC(C(=O)c2ccc(C3CCCCC3)cc2)N1 (configuration not stated)

Row | melting point | Compound
73 | 36 °C | CC(C)(C)COc1ccc([N+](=O)[O-])cc1
74 | 126 to 143 °C | CCC12CCC3C4=C(CCC3C1CCC2=O)CC(OC)=CC4 (configuration not stated)
75 | 189 to 191 °C | C[C@]12CCC(=O)N[C@@H]1CCc1cc(-c3ccccc3Cl)ccc12
76 | 180 to 181 °C | CCc1cn(C2OC(CO)C(O)C2O)c(=O)[nH]c1=O (configuration not stated)
77 | 123 to 125 °C | NC(=O)c1c(Cl)c(-c2ccccc2)n2c1CN(S(=O)(=O)c1ccc(Cl)cc1)CC2
78 | 150 to 152 °C | Cc1c(NC(=O)CC(C)(C)C)c(C)c2c(c1-c1ccncc1)OCC2c1ccc(C(C)C)cc1 (configuration not stated)
79 | 99 to 100 °C | CC(C)[C@H](NC(=O)[C@H](CC(=O)OC(C)(C)C)NC(=O)CCCN)C(=O)OC(C)(C)C
80 | 181 to 183 °C | CCN(C(=O)c1ccccc1)[C@@H](Cc1c[nH]c2ccccc12)C(=O)OC(=O)c1ccc(N)cc1
81 | 43 to 45 °C | CCOC(=O)CSc1ccc([N+](=O)[O-])cc1
82 | 102 °C | FC(F)(F)c1cc2ccccc2[nH]1
83 | 81 to 84 °C | O=C(O)Cc1ccc(OCCNC(=O)C2Cc3ccccc3N2S(=O)(=O)c2ccc(-c3cc(C(F)(F)F)ccc3F)cc2)cc1 (configuration not stated)
84 | 232 to 234 °C | O=C(Cc1ccc(Oc2ccc(F)cc2)cc1)NC1(C(=O)O)Cc2ccc(-c3ccc(Cl)cc3)cc2C1 (configuration not stated)
85 | 209 to 210 °C | Cc1ccc2c(C(C)C(=O)O)cc(=O)[nH]c2c1 (configuration not stated)
86 | 122 to 124 °C | CC1CC2C3CCC4CC(O)CCC4(C)C3C(=O)CC2(C)C1C1(C)OCCO1 (configuration not stated)
87 | 139 to 140 °C | Cc1cc(N2CCN(c3ccccc3)CC2)c(C#N)c(Cl)n1
88 | 89 °C | COc1cc(C)ccc1S(=O)(=O)OCC(=O)c1ccccc1
89 | 224 to 225 °C | Cc1ccc(-c2ccc3c(c2)C=C(C(=O)O)CC(C)O3)cc1 (configuration not stated)
90 | 161 to 164 °C | CCNC(=O)N(c1ccc(C(O)(C(F)(F)F)C(F)(F)F)cc1)S(C)(=O)=O
91 | 188 to 190 °C | CC1(C)CC(NC(=O)c2cc(N)cc(N)c2)CC(C)(C)N1
92 | 74 to 76 °C | CS(=O)(=O)c1ccc(-n2nc(C(F)(F)F)cc2-c2ccc(-c3ccoc3)cc2)cc1F
93 | 77 to 78 °C | Cc1c(Cc2cc(Cl)cc(Cl)c2)c(C(C)C)nn1CCO
94 | 108 to 110 °C | OCc1cnoc1-c1ccc(-c2ccccc2)cc1

Row | Compound | melting point
95 | CC(=O)N1N=C(c2ccc([N+](=O)[O-])cc2)c2cc(Cl)c(Cl)cc2CC1C (configuration not stated) | 198 to 200 °C
96 | CC(C)(C)OC(=O)C(=O)C=[N+]=[N-] | 100 °C
97 | Cc1cccc2c1[C@@H]1CN(C)CC[C@@H]1CC2=O (relative stereo) | > 220 °C

Reference: a melting point compilation (Tetko et al.; mined from patent text by program, amines drawn as free bases though some values may be those of a salt)
